Read-outs that look alike come from different tables or passages of the source. Where a SMILES comes first, the peptide text is derived from it. Bridges are numbered along the chain shown (N, C = ends). Where no end group is shown, it is not given here. [ ]: non-standard residue; d: D form. pGlu = O=C1CC[C@@H](C(=O)O)N1

Results on eleven molecules are retold here after paper PMC10580383, “Development of Melanocortin 4 Receptor Agonists by Exploiting Animal-Derived Macrocyclic, Disulfide-Rich Peptide Scaffolds” (ACS Pharmacology & Translational Science, 2023).

For assay [1], the target named is T1, mouse melanocortin 4 receptor (MC4R) (Mus musculus, UniProt P56450).
T1 construct: expressed in transfected cells; host or cells: HEK293 / HEK293T, transient transfection
T1 sequence (P56450 whole entry): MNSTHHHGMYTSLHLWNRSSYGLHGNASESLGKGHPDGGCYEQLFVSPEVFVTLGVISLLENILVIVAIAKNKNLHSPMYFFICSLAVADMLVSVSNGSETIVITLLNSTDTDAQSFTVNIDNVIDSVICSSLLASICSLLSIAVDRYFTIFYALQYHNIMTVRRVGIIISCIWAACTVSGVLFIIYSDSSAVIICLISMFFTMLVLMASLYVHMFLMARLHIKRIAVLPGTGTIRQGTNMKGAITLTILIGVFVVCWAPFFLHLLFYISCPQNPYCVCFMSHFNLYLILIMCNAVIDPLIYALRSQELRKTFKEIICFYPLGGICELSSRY
Nature of the assay: cAMP second messenger quantification assay (Cisbio HTRF cAMP Gs kit). Type of assay: cell-based. The procedure: Figure 3 Functional cAMP assay of synthesized peptide analogues targeting MC4R. The accumulation of adenylyl cyclase-catalyzed cAMP of (A) tachylplesin-1-like peptides (Ta1LPs, green), (B) protegrin-4-like peptides ([…], pink), (C) arenicin-3-like peptides (Ar3LPs, orange), and (D) gomesin-like peptides (GoLPs, blue) was measured in HEK293 cells transiently expressing mouse melanocortin 4 receptor (MC4R). […] Data are from three independent experiments and are shown as mean ± SEM.
Assays were performed on cells transiently expressing mouse MC4R-EGFP. BamHI and SacI restriction sites were used to clone mouse MC4R N-terminally into a pEGFP-N1 vector. Peptide ligands were assayed for […] in a 384-well format and triplicate according to the Cisbio protocol. Briefly, 5 μL containing 10,000 cells per well was incubated with 5 μL of peptide solutions prepared 2× in 1× stimulation buffer. Following an incubation of peptide ligands at 37 °C for 30 min, d2-labeled cAMP and cryptate-labeled antibody (5 μL of each) were added to the mixture and further incubated for at least 1 h at room temperature. Subsequently, cAMP levels were quantified on a Flexstation 3 (Molecular Devices, San Jose, USA) using homogeneous time-resolved fluorescence resonance energy transfer and the ratio 665/620 nm. Samples were measured in technical triplicates.
Data analysis was performed with GraphPad Prism (GraphPad Software, San Diego). The potency (EC50) and maximum efficacy (Emax) values of peptide ligands were derived from functional data fitted to three- or four-parameter nonlinear regression curves constrained to a bottom of zero.

Assay [2] deals with mouse melanocortin 4 receptor fused to EGFP (mouse) (UniProt P56450).
Chain of mouse melanocortin 4 receptor fused to EGFP (mouse) (P56450 whole entry, the tested form may be a part): as the sequence (P56450 whole entry) above
Where [3] appears, read: HEK293, read-out: efficacy cAMP Emax ± SD.

As usually defined, the EC50 is the concentration needed to bring the measured effect to its halfway point. A higher EC50 goes with lower potency in that assay. By Emax is commonly meant the maximal effect, on the per cent scale that the assay sets. The molecule `CC(C)[C@@H]1NC(=O)[C@H](CCCNC(=N)N)NC(=O)[C@H](Cc2ccccc2)NC(=O)[C@@H](NC(=O)[C@H](Cc2c[nH]c3ccccc23)NC(=O)[C@@H](N)CCCCN)CSSC[C@@H](C(=O)N[C@@H](CCCNC(=N)N)C(N)=O)NC(=O)[C@H](CCCNC(=N)N)NC(=O)[C@H](CCCNC(=N)N)NC(=O)[C@H](Cc2ccc(O)cc2)NC(=O)[C@@H]2CSSC[C@H](NC1=O)C(=O)N[C@@H](Cc1c[nH]cn1)C(=O)N[C@H](Cc1ccccc1)C(=O)N[C@@H](Cc1c[nH]cn1)C(=O)N[C@@H](Cc1c[nH]c3ccccc13)C(=O)N2` [Ta1LP2] (H-KWCFRVCH[dF]HWCYRRCR-NH2; disulfide 3-16, 7-12) came in with an EC50 in assay [1] of 50.1 nM. For the same molecule, the maximum response (Emax) in assay [1] (setting [3]) came out at 97 ± 6%.

The molecule `CC(C)C[C@@H]1NC(=O)[C@H](CCCNC(=N)N)NC(=O)[C@H](CCCNC(=N)N)NC(=O)[C@@H](NC(=O)[C@@H]2CCC(=O)N2)CSSC[C@@H](C(=O)N[C@@H](CCCNC(=N)N)C(=O)NCC(=O)N[C@@H](CCCNC(=N)N)C(N)=O)NC(=O)[C@H](Cc2ccc(O)cc2)NC(=O)[C@H]([C@@H](C)O)NC(=O)[C@H](C(C)C)NC(=O)[C@@H]2CSSC[C@H](NC1=O)C(=O)N[C@@H](Cc1c[nH]cn1)C(=O)N[C@H](Cc1ccccc1)C(=O)N[C@@H](CCCNC(=N)N)C(=O)N[C@@H](Cc1c[nH]c3ccccc13)C(=O)N2` [GoLP3] ([pGlu]CRRLCH[dF]RWCVTYCRGR-NH2; disulfide 2-15, 6-11) yielded an EC50 in assay [1] of 39.8 nM. Besides, the maximal response (Emax) in assay [1] (setting [3]) was 104 ± 5%.

On to `CC(C)C[C@H](NC(=O)[C@H](CCCNC(=N)N)NC(=O)CNC(=O)CNC(=O)[C@@H](N)CCCNC(=N)N)C(=O)N[C@H]1CSSC[C@@H](C(=O)N[C@H](C(=O)NCC(=O)N[C@@H](CCCNC(=N)N)C(N)=O)C(C)C)NC(=O)[C@H](Cc2ccccc2)NC(=O)[C@@H]2CSSC[C@H](NC(=O)[C@H](Cc3ccc(O)cc3)NC1=O)C(=O)N[C@@H](Cc1c[nH]cn1)C(=O)N[C@H](Cc1ccccc1)C(=O)N[C@@H](Cc1c[nH]cn1)C(=O)N[C@@H](Cc1c[nH]c3ccccc13)C(=O)N2` [Pr4LP2] (H-RGGRLCYCH[dF]HWCFCVGR-NH2; disulfide 6-15, 8-13), for which the EC50 in assay [1] amounted to 158 nM. Moreover, the Emax in assay [1] (setting [3]) was found to be 97 ± 4%.

Take `CC(C)[C@@H]1NC(=O)[C@H](CCCNC(=N)N)NC(=O)[C@H](Cc2c[nH]c3ccccc23)NC(=O)[C@H](Cc2c[nH]cn2)NC(=O)[C@@H](Cc2ccccc2)NC(=O)[C@H](Cc2c[nH]cn2)NC(=O)[C@@H]2CCCN2C(=O)[C@H](C(C)C)NC(=O)[C@@H]2CSSC[C@H](NC1=O)C(=O)N[C@@H](Cc1ccc(O)cc1)C(=O)N[C@@H](CCCNC(=N)N)C(=O)N[C@@H](CCCNC(=N)N)C(=O)N[C@H](C(=O)N[C@@H](CC(N)=O)C(N)=O)CSSC[C@H](NC(=O)[C@H](Cc1ccccc1)NC(=O)CN)C(=O)N[C@@H](Cc1c[nH]c3ccccc13)C(=O)N[C@@H](Cc1ccc(O)cc1)C(=O)N[C@@H](C(C)C)C(=O)N2` [Ar3LP3] (H-GFCWYVCVPH[dF]HWRVCYRRCN-NH2; disulfide 3-20, 7-16): in assay [1], the EC50 stood at 1000 nM. For the same molecule, the Emax in assay [1] (HEK293; read-out: efficacy cAMP Emax ± SD) stood at 117 ± 18%.

In assay [1], `CC(C)C[C@H](NC(=O)[C@H](CCCNC(=N)N)NC(=O)CNC(=O)CNC(=O)[C@@H](N)CCCNC(=N)N)C(=O)N[C@H]1CSSC[C@@H](C(=O)N[C@H](C(=O)NCC(=O)N[C@@H](CCCNC(=N)N)C(N)=O)C(C)C)NC(=O)[C@H](Cc2ccccc2)NC(=O)[C@@H]2CSSC[C@H](NC(=O)[C@H](Cc3ccc(O)cc3)NC1=O)C(=O)N[C@@H](Cc1c[nH]cn1)C(=O)N[C@H](Cc1ccccc1)C(=O)N[C@@H](CCCNC(=N)N)C(=O)N[C@@H](Cc1c[nH]c3ccccc13)C(=O)N2` [Pr4LP3] (H-RGGRLCYCH[dF]RWCFCVGR-NH2; disulfide 6-15, 8-13) gave an EC50 of 200 nM. For the same molecule, in assay [1] (setting [3]), the Emax stood at 99 ± 6%.

Molecule `CC(C)[C@@H]1NC(=O)[C@H](CCCNC(=N)N)NC(=O)[C@H](Cc2ccccc2)NC(=O)[C@@H](NC(=O)[C@H](Cc2c[nH]c3ccccc23)NC(=O)[C@@H](N)CCCCN)CSSC[C@@H](C(=O)N[C@@H](CCCNC(=N)N)C(N)=O)NC(=O)[C@H](CCCNC(=N)N)NC(=O)[C@H](CCCNC(=N)N)NC(=O)[C@H](Cc2ccc(O)cc2)NC(=O)[C@@H]2CSSC[C@H](NC1=O)C(=O)N1CCC[C@H]1C(=O)N[C@@H](Cc1c[nH]cn1)C(=O)N[C@H](Cc1ccccc1)C(=O)N[C@@H](Cc1c[nH]cn1)C(=O)N[C@@H](Cc1c[nH]c3ccccc13)C(=O)N2` [Ta1LP1] (H-KWCFRVCPH[dF]HWCYRRCR-NH2; disulfide 3-17, 7-13) registered an EC50 in assay [1] of 20 nM. For the same molecule, the Emax in assay [1] (setting [3]) amounted to 97 ± 4%.

In assay [2], NDP-α-MSH (peptide) had a cAMP accumulation (Cisbio HTRF) in HEK293 cells transiently expressing mouse MC4R-EGFP: EC50 of 0.04 nM and a cAMP accumulation (Cisbio HTRF) in HEK293 cells transiently expressing mouse MC4R-EGFP: Emax (normalised to NDP-α-MSH) of 100%.

In turn, `CC(C)[C@@H]1NC(=O)[C@H](CCCNC(=N)N)NC(=O)[C@H](Cc2ccccc2)NC(=O)[C@@H](NC(=O)[C@H](Cc2c[nH]c3ccccc23)NC(=O)[C@@H](N)CCCCN)CSSC[C@@H](C(=O)N[C@@H](CCCNC(=N)N)C(N)=O)NC(=O)[C@H](CCCNC(=N)N)NC(=O)[C@H](CCCNC(=N)N)NC(=O)[C@H](Cc2ccc(O)cc2)NC(=O)[C@@H]2CSSC[C@H](NC1=O)C(=O)N[C@@H](Cc1c[nH]cn1)C(=O)N[C@H](Cc1ccccc1)C(=O)N[C@@H](CCCNC(=N)N)C(=O)N[C@@H](Cc1c[nH]c3ccccc13)C(=O)N2` [Ta1LP3] (H-KWCFRVCH[dF]RWCYRRCR-NH2; disulfide 3-16, 7-12) had an EC50 in assay [1] of 16.7 nM. Also, the maximal response (Emax) in assay [1] (setting [3]) amounted to 98 ± 4%.

B1: arenicin-3-like peptide 3 (peptide)
peptide: GFCWYVCVPH[dF]HWRVCYRRCN-NH2
modifications: disulfide 7-16, 3-20; N-terminus assumed
SMILES: CC(C)[C@@H]1NC(=O)[C@H](CCCNC(=N)N)NC(=O)[C@H](Cc2c[nH]c3ccccc23)NC(=O)[C@H](Cc2c[nH]cn2)NC(=O)[C@@H](Cc2ccccc2)NC(=O)[C@H](Cc2c[nH]cn2)NC(=O)[C@@H]2CCCN2C(=O)[C@H](C(C)C)NC(=O)[C@@H]2CSSC[C@H](NC1=O)C(=O)N[C@@H](Cc1ccc(O)cc1)C(=O)N[C@@H](CCCNC(=N)N)C(=O)N[C@@H](CCCNC(=N)N)C(=O)N[C@H](C(=O)N[C@@H](CC(N)=O)C(N)=O)CSSC[C@H](NC(=O)[C@H](Cc1ccccc1)NC(=O)CN)C(=O)N[C@@H](Cc1c[nH]c3ccccc13)C(=O)N[C@@H](Cc1ccc(O)cc1)C(=O)N[C@@H](C(C)C)C(=O)N2
As to B1, in assay [2], the cAMP accumulation (Cisbio HTRF) in HEK293 cells transiently expressing mouse MC4R-EGFP: EC50 turned out to be 1000 nM and the cAMP accumulation (Cisbio HTRF) in HEK293 cells transiently expressing mouse MC4R-EGFP: Emax (normalised to NDP-α-MSH) worked out at 117%.

B2: tachyplesin-1-like peptide 2 (peptide)
peptide: KWCFRVCH[dF]HWCYRRCR-NH2
modifications: disulfide 7-12, 3-16; N-terminus assumed
SMILES: CC(C)[C@@H]1NC(=O)[C@H](CCCNC(=N)N)NC(=O)[C@H](Cc2ccccc2)NC(=O)[C@@H](NC(=O)[C@H](Cc2c[nH]c3ccccc23)NC(=O)[C@@H](N)CCCCN)CSSC[C@@H](C(=O)N[C@@H](CCCNC(=N)N)C(N)=O)NC(=O)[C@H](CCCNC(=N)N)NC(=O)[C@H](CCCNC(=N)N)NC(=O)[C@H](Cc2ccc(O)cc2)NC(=O)[C@@H]2CSSC[C@H](NC1=O)C(=O)N[C@@H](Cc1c[nH]cn1)C(=O)N[C@H](Cc1ccccc1)C(=O)N[C@@H](Cc1c[nH]cn1)C(=O)N[C@@H](Cc1c[nH]c3ccccc13)C(=O)N2
On to B2, for which, in assay [2], the cAMP accumulation (Cisbio HTRF) in HEK293 cells transiently expressing mouse MC4R-EGFP: EC50 amounted to 48 nM and the cAMP accumulation (Cisbio HTRF) in HEK293 cells transiently expressing mouse MC4R-EGFP: Emax (normalised to NDP-α-MSH) was found to be 97%.

B3: tachyplesin-1-like peptide 1 (peptide)
peptide: KWCFRVCPH[dF]HWCYRRCR-NH2
modifications: disulfide 7-13, 3-17; N-terminus assumed
SMILES: CC(C)[C@@H]1NC(=O)[C@H](CCCNC(=N)N)NC(=O)[C@H](Cc2ccccc2)NC(=O)[C@@H](NC(=O)[C@H](Cc2c[nH]c3ccccc23)NC(=O)[C@@H](N)CCCCN)CSSC[C@@H](C(=O)N[C@@H](CCCNC(=N)N)C(N)=O)NC(=O)[C@H](CCCNC(=N)N)NC(=O)[C@H](CCCNC(=N)N)NC(=O)[C@H](Cc2ccc(O)cc2)NC(=O)[C@@H]2CSSC[C@H](NC1=O)C(=O)N1CCC[C@H]1C(=O)N[C@@H](Cc1c[nH]cn1)C(=O)N[C@H](Cc1ccccc1)C(=O)N[C@@H](Cc1c[nH]cn1)C(=O)N[C@@H](Cc1c[nH]c3ccccc13)C(=O)N2
In assay [2], B3 registered a cAMP accumulation (Cisbio HTRF) in HEK293 cells transiently expressing mouse MC4R-EGFP: EC50 of 20 nM and a cAMP accumulation (Cisbio HTRF) in HEK293 cells transiently expressing mouse MC4R-EGFP: Emax (normalised to NDP-α-MSH) of 97%.
